# Assay results as given in patent publication US20090297438A1, “Human Monoclonal Antibodies to Prostate Specific Membrane Antigen (PSMA)” (priority 2005, published 2009).
# System: LNCaP human prostate carcinoma xenografts
# Assay: LNCaP tumor xenografts treated with Taxotere and 7F12 antibody
# Format: in vivo, male CB17.SCID mice
# Conditions: Taxotere alone, 2 and 4 mg/kg iv
# Experimental: The anti-tumor efficacy of the anti-PSMA 7F12 antibody in combination with Taxotere® (docetaxel) was tested on LNCaP human prostate carcinoma xenografts grown in male CB17.SCID mice.
# LNCaP prostate cancer cells expressing high levels of PSMA were obtained from ATCC (Cat# CRL-1740) and expanded in vitro following ATCC instruction. 8 week-old male CB17.SCID mice from Taconic were implanted subcutaneously in the right flank with 2.5×10^6 LNCaP cells in 0.2 ml of PBS/Matrigel (1:1) per mouse. Mice were weighed and measured for tumor volume using an electronic caliper twice weekly starting three weeks post implantation. Tumor volumes were calculated as height×width×length. Mice with vascularized tumors (determined by the appearance of the tumors) of 180 mm^3 were randomized into treatment group and were dosed per individual body weight on Day 0. Mice were monitored for tumor growth around 60 days post dosing and terminated at the end of the study. Mice were euthanized when the tumors reached tumor end point (1500 mm^3). Taxotere® was dosed at Q3Dx3 intravenously (iv) through the tail vein. Isotype control antibody Rituxan® and the anti-PSMA 7F12 antibody were dosed intraperitoneally (ip) Q3Dx5, followed with Q7Dx6.
smiles,measurement,value
"CC(=O)O[C@@]12CO[C@@H]1C[C@H](O)[C@@]1(C)C(=O)[C@H](O)C3=C(C)[C@@H](OC(=O)[C@H](O)[C@@H](NC(=O)OC(C)(C)C)c4ccccc4)C[C@@](O)([C@@H](OC(=O)c4ccccc4)[C@H]21)C3(C)C [Taxotere®, docetaxel]",anti-tumor growth efficacy,dose-dependent anti-tumor growth efficacy
